Measured values from US5541178A, “Carbapenem antibiotic compounds” (Zeneca Limited, priority 1991, dated 1996).
Values after ≈ are worked out from the molar mass of the structure shown. Counter-ions that a name gives are not always drawn. Like-named read-outs stand apart in the source and are kept apart here.

What was measured:
Assay type in all cases: cell-based
[1] = test system: B. fragilis AMP-R; test: MIC by agar-dilution technique, Diagnostic Sensitivity Test; settings: Bacteroides fragilis, inoculum 10^4 CFU/spot
Excerpt: (§1) The pharmaceutically acceptable carbapenem compounds of the present invention are useful antibacterial agents having a broad spectrum of activity in vitro against standard laboratory microorganisms, both Gram-negative and Gram-positive, which are used to screen for activity against pathogenic bacteria. The antibacterial spectrum and potency of a particular compound may be determined in a standard test system. In particular the carbapenems of the present invention show good stability to beta-lactamases and in general particularly good pharmacokinetics, especially as regards half life. In general compounds show significant improvement over imipenem.
(§2) The following results were obtained for representative compounds on a standard in vitro test system using Diagnostic Sensitivity Test. The antibacterial activity is described in terms of the minimum inhibitory concentration (MIC) determined by the agar-dilution technique with an inoculum size of 10^4 CFU/spot.

[2] = test system: B. fragilis AMP-S; test: as above; settings: Bacteroides fragilis, inoculum 10^4 CFU/spot
Excerpt: as §1, §2

[3] = test system: D Morganii DR 062; test: as above
Excerpt: as §1, §2

[4] = test system: E. coli DCO; test: as above; settings: Escherichia coli, inoculum 10^4 CFU/spot
Excerpt: as §1, §2

[5] = test system: Enterobacter cloacae P99+; test: as above
Excerpt: as §1, §2

[6] = test system: P. morganii I + 001; test: as above; settings: Morganella morganii
Excerpt: as §1, §2

[7] = test system: S. aureus Oxford; test: as above; settings: Staphylococcus aureus, inoculum 10^4 CFU/spot
Excerpt: as §1, §2

[8] = test system: Enterobacter cloacae P99-; test: microbe, parasite or virus in culture
Excerpt: as §1, §2

[9] = D Morganii DR 062, agar-dilution, inoculum 10^4 CFU/spot, read-out: MIC
[10] = P. morganii I + 001, agar-dilution, inoculum 10^4 CFU/spot, read-out: MIC

Which MIC [1] does the source give for `C[C@@H](O)[C@H]1C(=O)N2C(C(=O)O)=C(S[C@@H]3CN[C@H](C(=O)Nc4ccc(C(=O)O)cc4O)C3)[C@H](C)[C@H]12` [Example 1, (1R,5S,6S,8R,2'S,4'S)-2-(2-(4-Carboxy-2-hydroxyphenylcarbamoyl)pyrrolidin-4-ylthio)-6-(1-hydroxyethyl)-1-methylcarbapenem-3-carboxylic acid] here?
The MIC was 0.5 µg/mL (≈ 1.02 µM).

And the MIC [2]?
Its MIC is 0.25 µg/mL (≈ 0.509 µM).

And the MIC [3, 9]?
The MIC was 0.02 µg/mL (≈ 0.0407 µM).

What about the MIC [4] of the same molecule?
Its MIC is 0.01 µg/mL (≈ 0.0203 µM).

What about the MIC [5] of the same molecule?
The MIC was 0.25 µg/mL (≈ 0.509 µM).

And the MIC [6, 10]?
The MIC was 0.02 µg/mL.

What about the MIC [7] of the same molecule?
Its MIC is 0.13 µg/mL (≈ 0.264 µM).

And the MIC [8]?
The MIC was 0.01 µg/mL (≈ 0.0203 µM).

Which MIC [2] does the source give for `C[C@@H](O)[C@H]1C(=O)N2C(C(=O)O)=C(S[C@@H]3CN[C@H](C(=O)Nc4cc(C(=O)O)ccc4O)C3)[C@H](C)[C@H]12` [Example 2, (1R,5S,6S,8R,2'S,4'S)-2-(2-(5-Carboxy-2-hydroxyphenylcarbamoyl)pyrrolidin-4-ylthio)-6-(1-hydroxyethyl)-1-methylcarbapenem-3-carboxylic acid] here?
The MIC was 0.25 µg/mL (≈ 0.509 µM).

What about the MIC [3, 9] of the same molecule?
The MIC was 0.06 µg/mL (≈ 0.122 µM).

What about the MIC [4] of the same molecule?
The MIC was 0.03 µg/mL (≈ 0.061 µM).

What about the MIC [5] of the same molecule?
Its MIC is 1 µg/mL (≈ 2.03 µM).

What about the MIC [6, 10] of the same molecule?
The MIC was 0.06 µg/mL.

And the MIC [7]?
Its MIC is 0.13 µg/mL (≈ 0.264 µM).

What about the MIC [8] of the same molecule?
Its MIC is 0.01 µg/mL (≈ 0.0203 µM).

Which MIC [1] does the source give for `C[C@@H](O)[C@H]1C(=O)N2C(C(=O)O)=C(S[C@@H]3CN[C@H](C(=O)Nc4cccc(C(=O)O)c4C(=O)O)C3)[C@H](C)[C@H]12` [Example 4, (1R,5S,6S,8R,2'S,4'S)-2-(2-(2,3-Dicarboxyphenylcarbamoyl)pyrrolidin-4-ylthio)-6-(1-hydroxyethyl)-1-methylcarbapenem-3-carboxylic acid] here?
Its MIC is 0.5 µg/mL (≈ 0.962 µM).

And the MIC [2]?
The MIC was 0.13 µg/mL (≈ 0.25 µM).

What about the MIC [3] of the same molecule?
The MIC was 0.03 µg/mL (≈ 0.0577 µM).

And the MIC [4]?
Its MIC is 0.02 µg/mL (≈ 0.0385 µM).

And the MIC [5]?
The MIC was 1 µg/mL (≈ 1.92 µM).

And the MIC [6]?
Its MIC is 0.03 µg/mL (≈ 0.0577 µM).

And the MIC [7]?
Its MIC is 0.25 µg/mL (≈ 0.481 µM).

What about the MIC [8] of the same molecule?
The MIC was 0.01 µg/mL (≈ 0.0192 µM).

How did the MIC [1] turn out when `C[C@@H](O)[C@H]1C(=O)N2C(C(=O)O)=C(S[C@@H]3CN[C@H](C(=O)Nc4ccccc4C(=O)O)C3)[C@H](C)[C@H]12` [Example 5, (1R,5S,6S,8R,2'S,4'S)-2-(2-(2-Carboxyphenylcarbamoyl)pyrrolidin-4-ylthio)-6-(1-hydroxyethyl)-1-methylcarbapenem-3-carboxylic acid] was run?
The MIC was 0.25 µg/mL (≈ 0.526 µM).

What about the MIC [2] of the same molecule?
The MIC was 0.25 µg/mL (≈ 0.526 µM).

And the MIC [3]?
The MIC was 0.03 µg/mL (≈ 0.0631 µM).

What about the MIC [4] of the same molecule?
Its MIC is 0.03 µg/mL (≈ 0.0631 µM).

And the MIC [5]?
Its MIC is 1 µg/mL (≈ 2.1 µM).

And the MIC [6]?
The MIC was 0.03 µg/mL (≈ 0.0631 µM).

And the MIC [7]?
Its MIC is 0.06 µg/mL (≈ 0.126 µM).

And the MIC [8]?
The MIC was 0.06 µg/mL (≈ 0.126 µM).

For `C[C@@H](O)[C@H]1C(=O)N2C(C(=O)O)=C(S[C@@H]3CN[C@H](C(=O)Nc4ccc(C(=O)O)cc4C(=O)O)C3)[C@H](C)[C@H]12` [Example 13, (1R,5S,6S,8R,2'S,4'S)-2-(2-(2,4-Dicarboxyphenylcarbamoyl)pyrrolidin-4-ylthio)-6-(1-hydroxyethyl)-1-methylcarbapenem-3-carboxylic acid], which MIC [1] is on record?
Its MIC is 0.5 µg/mL (≈ 0.962 µM).

What about the MIC [2] of the same molecule?
The MIC was 0.13 µg/mL (≈ 0.25 µM).

What about the MIC [3, 9] of the same molecule?
Its MIC is 0.02 µg/mL (≈ 0.0385 µM).

What about the MIC [4] of the same molecule?
Its MIC is 0.02 µg/mL (≈ 0.0385 µM).

What about the MIC [5] of the same molecule?
The MIC was 2 µg/mL (≈ 3.85 µM).

What about the MIC [6, 10] of the same molecule?
The MIC was 0.01 µg/mL.

What about the MIC [7] of the same molecule?
The MIC was 0.25 µg/mL (≈ 0.481 µM).

And the MIC [8]?
Its MIC is 0.03 µg/mL (≈ 0.0577 µM).

Which results are given for `COc1ccc(NC(=O)[C@@H]2C[C@H](SC3=C(C(=O)O)N4C(=O)[C@H]([C@@H](C)O)[C@H]4[C@H]3C)CN2)c(C(=O)O)c1` [Example 31, (1R,5S,6S,8R,2'S,4'S)-2-(2-(2-Carboxy-4-methoxyphenylcarbamoylpyrrolidin-4-ylthiol)-6-(1-hydroxyethyl)-1-methylcarbapenem-3-carboxylic acid, dipotassium salt]?
MIC [1]: 0.25 µg/mL; MIC [2]: 0.25 µg/mL; MIC [3, 9]: 0.06 µg/mL; MIC [4]: 0.02 µg/mL; MIC [5]: 1 µg/mL; MIC [6]: 0.03 µg/mL; MIC [7]: 0.13 µg/mL; MIC [8]: 0.03 µg/mL

What does the source list for `CO/N=C(\C(=O)N[C@@H]1C(=O)N2C(C(=O)O)=C(CSc3nc(=O)c(=O)[nH]n3C)CS[C@H]12)c1csc(N)n1` [ceftriaxone, reference compound]?
MIC [1]: > 128 µg/mL; MIC [2]: 2 µg/mL (≈ 3.61 µM); MIC [3, 9]: 1 µg/mL (≈ 1.8 µM); MIC [4]: 0.03 µg/mL (≈ 0.0541 µM); MIC [5]: 32 µg/mL (≈ 57.7 µM); MIC [6, 10]: 0.01 µg/mL; MIC [7]: 2 µg/mL (≈ 3.61 µM); MIC [8]: 0.06 µg/mL (≈ 0.108 µM)
